Several values for one entry are separate records, joined by “and”; a condition that tells them apart may be missing. Identical values can stand only once. Activity calls are given as the source filed them. No cut-off for these calls is given here.
What was measured:
[1] = biological target: T1, Amine oxidase [flavin-containing] B (Homo sapiens, UniProt P27338); assay: Compound was tested for inhibition of monoamine oxidase-B (MAO-B).
T1 sequence (P27338 whole entry): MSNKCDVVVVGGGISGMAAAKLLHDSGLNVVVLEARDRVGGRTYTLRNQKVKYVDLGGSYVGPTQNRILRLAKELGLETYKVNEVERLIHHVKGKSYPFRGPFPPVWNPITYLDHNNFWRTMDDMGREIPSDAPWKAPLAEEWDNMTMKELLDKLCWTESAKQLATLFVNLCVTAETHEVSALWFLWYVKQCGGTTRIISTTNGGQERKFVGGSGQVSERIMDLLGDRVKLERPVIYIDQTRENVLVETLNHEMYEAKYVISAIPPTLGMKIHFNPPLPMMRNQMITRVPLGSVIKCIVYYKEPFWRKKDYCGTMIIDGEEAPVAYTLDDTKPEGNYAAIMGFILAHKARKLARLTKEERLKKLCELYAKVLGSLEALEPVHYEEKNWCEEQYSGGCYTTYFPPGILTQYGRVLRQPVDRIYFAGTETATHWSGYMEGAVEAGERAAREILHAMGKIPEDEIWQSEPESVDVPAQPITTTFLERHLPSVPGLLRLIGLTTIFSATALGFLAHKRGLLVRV

[2] = biological target: T2, Amine oxidase [flavin-containing] A (Homo sapiens, UniProt P21397); assay: Compound was tested for inhibition of monoamine oxidase-A (MAO-A).
T2 sequence (P21397 whole entry): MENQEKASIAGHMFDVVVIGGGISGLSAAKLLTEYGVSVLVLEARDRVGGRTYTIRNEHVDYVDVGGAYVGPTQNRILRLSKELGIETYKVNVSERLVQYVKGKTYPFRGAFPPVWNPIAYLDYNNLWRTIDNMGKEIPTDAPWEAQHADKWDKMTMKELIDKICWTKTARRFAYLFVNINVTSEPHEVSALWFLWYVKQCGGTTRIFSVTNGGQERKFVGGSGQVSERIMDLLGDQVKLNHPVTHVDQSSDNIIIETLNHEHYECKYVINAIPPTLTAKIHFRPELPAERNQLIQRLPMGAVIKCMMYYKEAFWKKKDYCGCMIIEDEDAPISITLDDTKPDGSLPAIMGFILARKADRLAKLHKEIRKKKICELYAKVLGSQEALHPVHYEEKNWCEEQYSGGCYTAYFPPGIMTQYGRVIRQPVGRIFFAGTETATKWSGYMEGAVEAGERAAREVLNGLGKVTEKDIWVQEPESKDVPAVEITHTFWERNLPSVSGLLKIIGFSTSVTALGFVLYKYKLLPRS

Acetylcholinesterase [3] = biological target: T3, Acetylcholinesterase (Homo sapiens, UniProt P22303); assay: Inhibition of acetylcholinesterase.
T3 sequence (P22303 whole entry): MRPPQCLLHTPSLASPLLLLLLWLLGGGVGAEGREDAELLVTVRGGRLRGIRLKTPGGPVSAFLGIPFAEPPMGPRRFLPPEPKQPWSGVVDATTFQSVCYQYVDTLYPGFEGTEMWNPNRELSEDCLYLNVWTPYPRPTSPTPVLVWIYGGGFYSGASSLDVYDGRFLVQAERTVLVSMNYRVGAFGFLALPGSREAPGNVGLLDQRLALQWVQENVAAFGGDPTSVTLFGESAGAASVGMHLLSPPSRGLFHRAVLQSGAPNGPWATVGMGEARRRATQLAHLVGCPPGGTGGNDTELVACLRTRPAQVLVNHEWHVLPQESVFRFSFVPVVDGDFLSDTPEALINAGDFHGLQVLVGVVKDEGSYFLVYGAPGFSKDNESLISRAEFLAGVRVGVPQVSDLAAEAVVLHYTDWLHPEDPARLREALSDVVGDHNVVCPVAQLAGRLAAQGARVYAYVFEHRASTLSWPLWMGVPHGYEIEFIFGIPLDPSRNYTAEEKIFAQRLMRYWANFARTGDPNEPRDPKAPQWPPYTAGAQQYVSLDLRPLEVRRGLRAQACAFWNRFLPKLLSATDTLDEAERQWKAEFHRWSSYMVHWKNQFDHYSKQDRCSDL

[4] = biological target: T1, Amine oxidase [flavin-containing] B; assay: Compound was tested for inhibition of monoamine oxidase-B (MAO-B) at 50 mg/kg dose upon peroral administration in 24 hr time interval; format: organism-based; parameters: dose 50 mg/kg, route oral; conditions: po
[5] = biological target: T1, Amine oxidase [flavin-containing] B; assay: Compound was tested for inhibition of monoamine oxidase-B (MAO-B) at 50 mg/kg dose upon peroral administration in 48 hr time interval; format: organism-based; parameters: dose 50 mg/kg, route oral; conditions: in vivo, po
[6] = biological target: T1, Amine oxidase [flavin-containing] B; assay: Compound was tested for inhibition of monoamine oxidase-B (MAO-B) at 50 mg/kg dose upon peroral administration in 4 hr time interval; format: organism-based; parameters: dose 50 mg/kg, route oral; conditions: po
[7] = biological target: T2, Amine oxidase [flavin-containing] A; assay: Compound was tested for inhibition of monoamine oxidase-A (MAO-A) at 50 mg/kg dose upon peroral administration in 1 hr time interval; format: organism-based; parameters: dose 50 mg/kg, route oral; conditions: po
[8] = biological target: T2, Amine oxidase [flavin-containing] A; assay: Compound was tested for inhibition of monoamine oxidase-A (MAO-A) at 50 mg/kg dose upon peroral administration in 24 hr time interval; format: organism-based; parameters: dose 50 mg/kg, route oral; conditions: po
[9] = biological target: T2, Amine oxidase [flavin-containing] A; assay: Compound was tested for inhibition of monoamine oxidase-A (MAO-A) at 50 mg/kg dose upon peroral administration in 48 hr time interval; format: organism-based; parameters: dose 50 mg/kg, route oral; conditions: po
[10] = biological target: T2, Amine oxidase [flavin-containing] A; assay: Compound was tested for inhibition of monoamine oxidase-A (MAO-A) at 50 mg/kg dose upon peroral administration in 4 hr time interval; format: organism-based; parameters: dose 50 mg/kg, route oral; conditions: po
Acetylcholinesterase [11] = biological target: T3, Acetylcholinesterase; conditions: 50 mg/kg
Acetylcholinesterase [12] = biological target: T3, Acetylcholinesterase; conditions: 50 mg/kg; remark: listed apart in the source
Acetylcholinesterase [13] = biological target: T3, Acetylcholinesterase; conditions: 50 mg/kg; remark: listed apart in the source
[14] = biological target: T1, Amine oxidase [flavin-containing] B; assay: Compound was tested for inhibition of monoamine oxidase-B (MAO-B) at 10 mg/kg dose upon peroral administration in 48 hr time interval; format: organism-based; parameters: dose 10 mg/kg, route oral; conditions: po
[15] = biological target: T1, Amine oxidase [flavin-containing] B; assay: Compound was tested for inhibition of monoamine oxidase-B (MAO-B) at 10 mg/kg dose upon peroral administration in 4 hr time interval; format: organism-based; parameters: dose 10 mg/kg, route oral; conditions: po
[16] = biological target: T1, Amine oxidase [flavin-containing] B; assay: Compound was tested for inhibition of monoamine oxidase-B (MAO-B) at 10 mg/kg dose upon peroral administration in 1 hr time interval; format: organism-based; parameters: dose 10 mg/kg, route oral; conditions: po
[17] = biological target: T1, Amine oxidase [flavin-containing] B; assay: Compound was tested for inhibition of monoamine oxidase-B (MAO-B) at 10 mg/kg dose upon peroral administration in 24 hr time interval; format: organism-based; parameters: dose 10 mg/kg, route oral; conditions: po
[18] = biological target: T2, Amine oxidase [flavin-containing] A; assay: Compound was tested for inhibition of monoamine oxidase-A (MAO-A) at 10 mg/kg dose upon peroral administration in 1 hr time interval; format: organism-based; parameters: dose 10 mg/kg, route oral; conditions: po
[19] = biological target: T2, Amine oxidase [flavin-containing] A; assay: Compound was tested for inhibition of monoamine oxidase-A (MAO-A) at 10 mg/kg dose upon peroral administration in 24 hr time interval; format: organism-based; parameters: dose 10 mg/kg, route oral; conditions: po
[20] = biological target: T2, Amine oxidase [flavin-containing] A; assay: Compound was tested for inhibition of monoamine oxidase-A (MAO-A) at 10 mg/kg dose upon peroral administration in 48 hr time interval; format: organism-based; parameters: dose 10 mg/kg, route oral; conditions: po
[21] = biological target: T2, Amine oxidase [flavin-containing] A; assay: Compound was tested for inhibition of monoamine oxidase-A (MAO-A) at 10 mg/kg dose upon peroral administration in 4 hr time interval; format: organism-based; parameters: dose 10 mg/kg, route oral; conditions: po
Acetylcholinesterase [22] = biological target: T3, Acetylcholinesterase; assay: Compound was tested for inhibition of acetylcholinesterase at […] dose upon peroral administration in 0.5 hr time interval
Acetylcholinesterase [23] = biological target: T3, Acetylcholinesterase; assay: Compound was tested for inhibition of acetylcholinesterase at 50 mg/kg dose upon peroral administration in 24 hr time interval; format: organism-based; parameters: dose 50 mg/kg
Acetylcholinesterase [24] = biological target: T3, Acetylcholinesterase; assay: Compound was tested for inhibition of acetylcholinesterase at 50 mg/kg dose upon peroral administration in 1 hr time interval; format: organism-based; parameters: dose 50 mg/kg
Acetylcholinesterase [25] = biological target: T3, Acetylcholinesterase; assay: Compound was tested for inhibition of acetylcholinesterase at 50 mg/kg dose upon peroral administration in 4 hr time interval; format: organism-based; parameters: dose 50 mg/kg
[26] = biological target: T1, Amine oxidase [flavin-containing] B; assay: Compound was tested for inhibition of monoamine oxidase-B (MAO-B) at 50 mg/kg dose upon peroral administration in 0.5 hr time interval; format: organism-based; parameters: dose 50 mg/kg, route oral; conditions: po
[27] = biological target: T1, Amine oxidase [flavin-containing] B; assay: Compound was tested for inhibition of monoamine oxidase-B (MAO-B) at 50 mg/kg dose upon peroral administration in 1 hr time interval; format: organism-based; parameters: dose 50 mg/kg, route oral; conditions: po
[28] = biological target: T1, Amine oxidase [flavin-containing] B; assay: Compound was tested for inhibition of monoamine oxidase-B (MAO-B) at 50 mg/kg dose upon peroral administration in 48 time interval; format: organism-based; parameters: dose 50 mg/kg, route oral; conditions: po
[29] = biological target: T2, Amine oxidase [flavin-containing] A; assay: Compound was tested for inhibition of monoamine oxidase-A (MAO-A) at 50 mg/kg dose upon peroral administration in 0.5 hr time interval; format: organism-based; parameters: dose 50 mg/kg, route oral; conditions: po
[30] = biological target: T2, Amine oxidase [flavin-containing] A; assay: Compound was tested for inhibition of monoamine oxidase-A (MAO-A) at 50 mg/kg dose upon peroral administration in 48 time interval; format: organism-based; parameters: dose 50 mg/kg, route oral; conditions: po
Acetylcholinesterase [31] = biological target: T3, Acetylcholinesterase; conditions: 10 mg/kg
Description: Compound was tested for inhibition of acetylcholinesterase at 10 mg/kg dose upon peroral administration in 0.5 hr time interval

Acetylcholinesterase [32] = biological target: T3, Acetylcholinesterase; conditions: 10 mg/kg; remark: listed apart in the source
Description: Compound was tested for inhibition of acetylcholinesterase at 10 mg/kg dose upon peroral administration in 1 hr time interval

Acetylcholinesterase [33] = biological target: T3, Acetylcholinesterase; conditions: 10 mg/kg; remark: listed apart in the source
Description: Compound was tested for inhibition of acetylcholinesterase at 10 mg/kg dose upon peroral administration in 4 hr time interval

Acetylcholinesterase [34] = biological target: T3, Acetylcholinesterase; conditions: 10 mg/kg; remark: listed apart in the source
Description: Compound was tested for inhibition of acetylcholinesterase at 10 mg/kg dose upon peroral administration in 24 hr time interval

SMILES | IC50 [1] | IC50 [2] | IC50 (Acetylcholinesterase [3]) | also measured
CCC/N=C1/CCc2c1n(C)c1ccccc21 | > 1000 µM | 1.61 µM | – | –
CC/N=C1/CCc2c1n(C)c1ccc(OC(=O)NC)cc21 | > 1000 µM | 3.74 µM | 5.68 µM | –
CC/N=C1/CCc2c1n(C)c1ccccc21 | 77.6 µM | 2.12 µM | – | –
CC/N=C1/CCc2c1n(C)c1ccc(OC(=O)NC)c(Cl)c21 | > 1000 µM | 0.1 µM | 0.16 µM | –
C/N=C1/CCc2c1n(C)c1cc(Cl)c(OC(=O)NC)cc21 | 395 µM | 22.5 µM | 0.67 µM | –
CNC(=O)Oc1ccc2c(c1)c1c(n2C)/C(=N\CCc2ccccc2)CC1 | > 1000 µM | > 1000 µM | 0.16 µM | –
C/N=C1/CCc2c1n(C)c1ccc(OC(=O)N(C)C)c(Br)c21 | 51 µM | 0.54 µM | 0.06 µM | inhibition at 50 mg/kg [4]: 6.6%; Inhibition [5]: 10.1% and 20.4%; inhibition at 50 mg/kg [6]: 25.9%; inhibition at 50 mg/kg [7]: 44%; inhibition at 50 mg/kg [8]: 23.2%; inhibition at 50 mg/kg [9]: 22.3%; inhibition at 50 mg/kg [10]: 58.8%; inhibition (Acetylcholinesterase [11]): inactive; inhibition (Acetylcholinesterase [12]): inactive; inhibition (Acetylcholinesterase [13]): inactive
COc1cc(Br)c2oc(C3CCNCC3)cc2c1 [BROFAROMINE] | 23.4 µM | 0.18 µM | – | inhibition at 10 mg/kg [14]: 18.3%; inhibition at 10 mg/kg [15]: 42.6%; inhibition at 10 mg/kg [16]: 29.6%; inhibition at 10 mg/kg [17]: 22.2%; inhibition at 10 mg/kg [18]: 52.1%; inhibition at 10 mg/kg [19]: 28.7%; inhibition at 10 mg/kg [20]: 13.2%; inhibition at 10 mg/kg [21]: 64.2%
CC(C)/N=C1/CCc2c1n(C)c1ccccc21 | > 1000 µM | 30.8 µM | – | –
CCC/N=C1/CCc2c1n(C)c1ccc(OC(=O)NC)cc21 | > 1000 µM | 25.4 µM | 3.84 µM | –
C/N=C1/CCc2c1n(C)c1ccc(OC(=O)NC)cc21 | > 1000 µM | 13.6 µM | 3.36 µM | –
CC/N=C1/CCc2c1n(C)c1ccc(OC(=O)NC)c(Br)c21 | > 1000 µM | 0.21 µM | 0.14 µM | inhibition (Acetylcholinesterase [22]): 15.1%; inhibition (Acetylcholinesterase [23]): 0.2%; inhibition (Acetylcholinesterase [24]): 19.4%; inhibition (Acetylcholinesterase [25]): 30.9%; inhibition at 50 mg/kg [26]: 21.5%; inhibition at 50 mg/kg [27]: 17.2%; inhibition at 50 mg/kg [4]: 17.8%; inhibition at 50 mg/kg [28]: 9.3%; inhibition at 50 mg/kg [6]: 25.9%; inhibition at 50 mg/kg [29]: 28.2%; inhibition at 50 mg/kg [7]: 33.3%; inhibition at 50 mg/kg [8]: 13.1%; inhibition at 50 mg/kg [30]: 11.7%; inhibition at 50 mg/kg [10]: 48.9%
CCCCCCCNC(=O)Oc1ccc2c(c1)[C@]1(C)CCN(C)[C@@H]1N2C [EPTASTIGMINE] | – | – | 0.009 µM | inhibition (Acetylcholinesterase [31]): 33.2%; inhibition (Acetylcholinesterase [32]): 52.3%; inhibition (Acetylcholinesterase [33]): 72.9%; inhibition (Acetylcholinesterase [34]): 20.8%
Cn1c2c(c3ccccc31)CC/C2=N/Cc1ccncc1 | > 1000 µM | 113 µM | – | –
CCCCNC(=O)Oc1ccc2c(c1Br)c1c(n2C)/C(=N\C)CC1 | 175 µM | 0.75 µM | 3.17 µM | –
C/N=C1/CCc2c1n(C)c1ccccc21 | 317 µM | 0.92 µM | – | –
C/N=C1/CCc2c1n(C)c1ccc(OC(=O)NC)c(Br)c21 | > 1000 µM | 0.65 µM | 0.18 µM | –
CCCn1c2c(c3c(Br)c(OC(=O)NC)ccc31)CC/C2=N/CC | > 1000 µM | > 1000 µM | 0.23 µM | –
C/N=C1/CCc2c1n(C)c1ccc(OC(=O)NC)c(Cl)c21 | > 1000 µM | 1.36 µM | 0.23 µM | –
C/N=C1/CCc2c1n(C)c1ccc(OC(=O)NCc3ccccc3)c(Br)c21 | > 1000 µM | 5.47 µM | 4.19 µM | –

Source: ChEMBL document CHEMBL1151505, “Imino 1,2,3,4-tetrahydrocyclopent[b]indole carbamates as dual inhibitors of acetylcholinesterase and monoamine oxidase” (Bioorg Med Chem Lett, 1996)
